Several values for one entry are separate records, joined by “and”; a condition that tells them apart may be missing. Equal values may be shown once.
Test system: not listed separately
Test: Lipophilicity as RM values by reversed-phase thin-layer chromatography
Assay type: physicochemical
Settings: reversed-phase TLC, dimensionless
Excerpt: Lipophilicity can be evaluated through calculations or experimental methods. In our study, we measured the lipophilicity of the synthesized 2-ABT derivatives using a practical method: reversed-phase thin-layer chromatography, as described by Hadjipavlou-Litina. The lipophilicity increased in the following order based on the experimentally obtained RM values: 3a (1.629) < […] < 3e (1.736) < 3b (1.941) < 3c (2.02). Compound 3c is the most lipophilic experimentally, followed by 3b, while 3a is the least lipophilic.
The determination of lipophilicity of 2-ABT derivatives was estimated according to the method reported by Pontiki and Hadjipavlou-Litina.

Question: Which “RM ± SD” value does the source give for CC(C)Cc1ccc(C(C)C(=O)Nc2nc3ccccc3s2)cc1 (stereo not shown) [Compound 3a, N-(benzo[d]thiazol-2-yl)-2-(4-isobutylphenyl)propanamide] here?
Answer: 1.629 ± 0.009 and 1.629

Question: Which “RM ± SD” value does the source give for CC(C(=O)Nc1nc2ccccc2s1)c1cccc(C(=O)c2ccccc2)c1 (stereo not shown) [Compound 3b, N-(benzo[d]thiazol-2-yl)-2-(3-benzoylphenyl)propanamide] here?
Answer: 1.941 ± 0.010 and 1.941

Question: Which “RM ± SD” value does the source give for COc1ccc2cc(C(C)C(=O)Nc3nc4ccccc4s3)ccc2c1 (stereo not shown) [Compound 3c, N-(benzo[d]thiazol-2-yl)-2-(6-methoxynaphthalen-2-yl)propanamide] here?
Answer: 2.020 ± 0.046 and 2.02

Question: For CC(C(=O)Nc1nc2ccccc2s1)c1ccc2c(c1)[nH]c1ccc(Cl)cc12 (stereo not shown) [Compound 3d, N-(benzo[d]thiazol-2-yl)-2-(6-chloro-9H-carbazol-2-yl)propanamide], which “RM ± SD” value is on record?
Answer: 1.755 ± 0.014 and 1.755

Question: With CC(C(=O)Nc1nc2ccccc2s1)c1ccc(-c2ccccc2)c(F)c1 (stereo not shown) [Compound 3e, N-(benzo[d]thiazol-2-yl)-2-(2-fluoro-[1,1′-biphenyl]-4-yl)propanamide] as the molecule, how does the “RM ± SD” value read?
Answer: 1.736 ± 0.015 and 1.736

Question: Which “RM ± SD” value does the source give for CC(C)Cc1ccc(C(C)C(=O)O)cc1 (stereo not shown) [Ibu, ibuprofen, reference compound] here?
Answer: 1.110 ± 0.010

Test system: not listed separately
Test: Hydroxyl radical scavenging activity (HRSA)
Settings: 1 h at 37 °C, absorbance at 510 nm
Procedure: Hydroxyl radical scavenging activities of different fractions of 2-ABT-profenes were determined according to the method described by Guo [47]. The scavenging of hydroxyl radicals was performed as follows: 0.3 mL sodium salicylate (20 mM), 1 mL FeSO4 (1.5 mM), 1 mL sample/standard of different concentrations (20–1000 µg/mL), and 0.7 mL H2O2 (6 mM) were mixed immediately. Then, the reaction tubes were put in a 37 °C water bath for 1 h, and the absorbance of the mixture was recorded at 510 nm against a blank. We used standards with proven high antioxidant activity such as ascorbic acid and quercetin. The hydroxyl radical scavenging ability was calculated as follows:(2) I,%(HRSA)=Ablank−Asample/Ablank×100 where Ablank is the absorbance without samples and Asample is the absorbance in the presence of the samples.

Question: For O=C1O[C@H]([C@@H](O)CO)C(O)=C1O [AA, ascorbic acid, reference compound], which “HRSA IC50 ± SD” value is on record?
Answer: 129.84 ± 4.52 µg/mL

Question: Which “HRSA IC50 ± SD” value does the source give for CC(C)Cc1ccc(C(C)C(=O)Nc2nc3ccccc3s2)cc1 (stereo not shown) [Compound 3a, N-(benzo[d]thiazol-2-yl)-2-(4-isobutylphenyl)propanamide] here?
Answer: 375.06 ± 14.62 µg/mL

Question: With CC(C(=O)Nc1nc2ccccc2s1)c1cccc(C(=O)c2ccccc2)c1 (stereo not shown) [Compound 3b, N-(benzo[d]thiazol-2-yl)-2-(3-benzoylphenyl)propanamide] as the molecule, how does the “HRSA IC50 ± SD” value read?
Answer: 285.13 ± 27.44 µg/mL

Question: With COc1ccc2cc(C(C)C(=O)Nc3nc4ccccc4s3)ccc2c1 (stereo not shown) [Compound 3c, N-(benzo[d]thiazol-2-yl)-2-(6-methoxynaphthalen-2-yl)propanamide] as the molecule, how does the “HRSA IC50 ± SD” value read?
Answer: 317.91 ± 11.61 µg/mL

Question: Which “HRSA IC50 ± SD” value does the source give for CC(C(=O)Nc1nc2ccccc2s1)c1ccc2c(c1)[nH]c1ccc(Cl)cc12 (stereo not shown) [Compound 3d, N-(benzo[d]thiazol-2-yl)-2-(6-chloro-9H-carbazol-2-yl)propanamide] here?
Answer: 551.44 ± 28.48 µg/mL

Question: For CC(C(=O)Nc1nc2ccccc2s1)c1ccc(-c2ccccc2)c(F)c1 (stereo not shown) [Compound 3e, N-(benzo[d]thiazol-2-yl)-2-(2-fluoro-[1,1′-biphenyl]-4-yl)propanamide], which “HRSA IC50 ± SD” value is on record?
Answer: 429.59 ± 21.49 µg/mL

Question: With O=c1c(O)c(-c2ccc(O)c(O)c2)oc2cc(O)cc(O)c12 [Qrc, quercetin, reference compound] as the molecule, how does the “HRSA IC50 ± SD” value read?
Answer: 149.18 ± 9.27 µg/mL

Test system: not listed separately
Test: Hydrogen peroxide scavenging activity (HPSA)
Settings: 10 min at 37 °C, absorbance at 230 nm
Procedure: The Manolov et al. approach was used to evaluate the capacity to scavenge hydrogen peroxide. A 43 mM solution of H2O2 was prepared in a potassium phosphate buffer solution (0.2 M, pH 7.4). The analysis of the samples was carried out as follows: in test tubes, 0.6 mL H2O2 (43 mM), 1 mL sample/standard of different concentrations (20–1000 µg/mL), and 2.4 mL potassium phosphate buffer solution were mixed. The mixture was stirred and incubated in the dark for 10 min at 37 °C. Absorbance was measured at 230 nm with a spectrophotometer (Camspec M508, Leeds, UK) against a blank solution containing phosphate buffer and H2O2 without the sample. Ascorbic acid and quercetin were used as standards. The percentage HPSA of the samples was evaluated by comparing them to a blank sample and was calculated using the following formula:(1) I,%(HPSA)=Ablank−(ATS−ACS)/Ablank×100 where Ablank is the absorbance of the blank sample, ACS is the absorbance of the control sample, and ATS is the absorbance of the test sample.

Question: For O=C1O[C@H]([C@@H](O)CO)C(O)=C1O [AA, ascorbic acid, reference compound], which “HPSA IC50 ± SD” value is on record?
Answer: 24.84 ± 0.35 µg/mL

Question: With CC(C)Cc1ccc(C(C)C(=O)Nc2nc3ccccc3s2)cc1 (stereo not shown) [Compound 3a, N-(benzo[d]thiazol-2-yl)-2-(4-isobutylphenyl)propanamide] as the molecule, how does the “HPSA IC50 ± SD” value read?
Answer: 65.51 ± 0.30 µg/mL

Question: Which “HPSA IC50 ± SD” value does the source give for CC(C(=O)Nc1nc2ccccc2s1)c1cccc(C(=O)c2ccccc2)c1 (stereo not shown) [Compound 3b, N-(benzo[d]thiazol-2-yl)-2-(3-benzoylphenyl)propanamide] here?
Answer: 60.24 µg/mL

Question: For COc1ccc2cc(C(C)C(=O)Nc3nc4ccccc4s3)ccc2c1 (stereo not shown) [Compound 3c, N-(benzo[d]thiazol-2-yl)-2-(6-methoxynaphthalen-2-yl)propanamide], which “HPSA IC50 ± SD” value is on record?
Answer: 67.71 µg/mL

Question: Which “HPSA IC50 ± SD” value does the source give for CC(C(=O)Nc1nc2ccccc2s1)c1ccc2c(c1)[nH]c1ccc(Cl)cc12 (stereo not shown) [Compound 3d, N-(benzo[d]thiazol-2-yl)-2-(6-chloro-9H-carbazol-2-yl)propanamide] here?
Answer: 67.22 ± 0.45 µg/mL

Question: For CC(C(=O)Nc1nc2ccccc2s1)c1ccc(-c2ccccc2)c(F)c1 (stereo not shown) [Compound 3e, N-(benzo[d]thiazol-2-yl)-2-(2-fluoro-[1,1′-biphenyl]-4-yl)propanamide], which “HPSA IC50 ± SD” value is on record?
Answer: 63.05 ± 0.28 µg/mL

Question: With O=c1c(O)c(-c2ccc(O)c(O)c2)oc2cc(O)cc(O)c12 [Qrc, quercetin, reference compound] as the molecule, how does the “HPSA IC50 ± SD” value read?
Answer: 69.25 ± 1.82 µg/mL

Molecular target: T1, human albumin (Homo sapiens, UniProt P02768)
T1 construct: purchased BB-NCIPD Ltd., Sofia, Bulgaria Human albumin 20%—BB, 200 g/L
Test: Inhibition of albumin denaturation (IAD), in vitro anti-inflammatory activity
Assay type: biochemical
Settings: human albumin 1%, heated at 70 °C for 15 min, turbidity at 660 nm; read-out: IAD IC50 ± SD (converted)
Procedure: In vitro analysis of anti-inflammatory activity was assessed as the inhibition of albumin denaturation (IAD). The analysis was performed according to Manolov’s method, with minor modifications. The experiment was performed with human albumin. The solution of albumin (1%) was prepared in distilled water (pH 7.4). Test samples/standards were first dissolved in 1.2 mL of DMSO and then supplemented with 1% Tween 80 in PBS so that the final concentration of the stock solution was 1000 μg/mL. Then, a series of working solutions with different concentrations (20–500 μg/mL) in 1% Tween 80/PBS were prepared. The reaction mixture contained a 2 mL test sample/standard of different concentrations and 1 mL albumin (1%). The mixture was incubated at 37 °C for 15 min and then heated at 70 °C for 15 min in a water bath. After cooling, the turbidity was measured at 660 nm with a spectrophotometer (Camspec M508, Leeds, UK). Ibuprofen was used as a standard. The experiment was performed three times. The percentage inhibition of albumin denaturation (IAD) was calculated against the control. The control sample consisted of the same concentration of albumin dissolved in distilled water. (3) %IAD=Ablank−Asample/Ablank×100

T1 sequence (P02768 25-609): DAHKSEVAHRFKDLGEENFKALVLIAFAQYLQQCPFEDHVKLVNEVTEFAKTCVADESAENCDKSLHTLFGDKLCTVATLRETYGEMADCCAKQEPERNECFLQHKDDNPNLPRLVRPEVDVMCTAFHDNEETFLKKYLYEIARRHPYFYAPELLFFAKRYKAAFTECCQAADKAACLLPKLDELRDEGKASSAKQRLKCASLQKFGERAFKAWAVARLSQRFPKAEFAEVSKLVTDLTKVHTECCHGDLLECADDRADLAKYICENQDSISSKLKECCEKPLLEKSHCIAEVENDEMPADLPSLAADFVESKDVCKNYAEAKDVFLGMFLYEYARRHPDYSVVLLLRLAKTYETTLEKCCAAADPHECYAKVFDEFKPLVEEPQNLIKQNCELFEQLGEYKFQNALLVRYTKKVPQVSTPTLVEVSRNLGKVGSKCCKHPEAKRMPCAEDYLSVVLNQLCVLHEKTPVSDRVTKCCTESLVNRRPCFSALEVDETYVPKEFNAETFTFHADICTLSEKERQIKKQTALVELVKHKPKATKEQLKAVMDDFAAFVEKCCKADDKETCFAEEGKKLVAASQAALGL

Question: For CC(C)Cc1ccc(C(C)C(=O)Nc2nc3ccccc3s2)cc1 (stereo not shown) [Compound 3a, N-(benzo[d]thiazol-2-yl)-2-(4-isobutylphenyl)propanamide], which IC50 is on record?
Answer: 473 µM

Question: Which IC50 does the source give for CC(C(=O)Nc1nc2ccccc2s1)c1cccc(C(=O)c2ccccc2)c1 (stereo not shown) [Compound 3b, N-(benzo[d]thiazol-2-yl)-2-(3-benzoylphenyl)propanamide] here?
Answer: 141 µM

Question: Which IC50 does the source give for COc1ccc2cc(C(C)C(=O)Nc3nc4ccccc4s3)ccc2c1 (stereo not shown) [Compound 3c, N-(benzo[d]thiazol-2-yl)-2-(6-methoxynaphthalen-2-yl)propanamide] here?
Answer: 178 µM

Question: Which IC50 does the source give for CC(C(=O)Nc1nc2ccccc2s1)c1ccc2c(c1)[nH]c1ccc(Cl)cc12 (stereo not shown) [Compound 3d, N-(benzo[d]thiazol-2-yl)-2-(6-chloro-9H-carbazol-2-yl)propanamide] here?
Answer: 160 µM

Question: With CC(C(=O)Nc1nc2ccccc2s1)c1ccc(-c2ccccc2)c(F)c1 (stereo not shown) [Compound 3e, N-(benzo[d]thiazol-2-yl)-2-(2-fluoro-[1,1′-biphenyl]-4-yl)propanamide] as the molecule, how does the IC50 read?
Answer: 157 µM

From article PMC11721736, “Synthesis of Novel Benzothiazole–Profen Hybrid Amides as Potential NSAID Candidates” (Molecules, 2024)
